Patent EP0449955B1, “SYNTHETIC HIV-LIKE PEPTIDES, THEIR COMPOSITIONS AND USES” (CLARITY TECHNOLOGIES INCORPORATED, priority 1988, dated 1996)

What was measured:
antibodies to HIV-1 [1] = test: EIA of peptide-carrier conjugates with individual human sera; assay type: binding; settings: BSA-SMCC conjugate
Protocol: The free peptides or peptide-protein conjugates of Figures 1-13 were initially screened for immunoreactivity by coating each well of polystyrene microtiter EIA plates (Costar, Cambridge, Massachusetts, U.S.A.) with 0.2 ml amounts of concentrations of 5-50 micrograms/ml peptide in Tris buffer, 10 mM, pH 8.0, at 4°C overnight. Peptides or peptide-protein conjugates showing immunoreactivity by EIA were then further diluted for coating to determine the minimal concentrations required that allowed maximal immunoreactivity with antibodies to HIV, and minimal nonspecific reactivity with normal sera. The EIA tests were performed as follows: The coating solution was removed from each well and the wells were blocked at 37°C for 30 minutes with a solution of 50 mM phosphate, 100 mM NaCl, pH 7.4, 1% BSA, 0.5% gelatin. The wells were then aspirated dry with a microtiter plate washer and washed 3 times with a solution of 50 mM phosphate, 100 mM NaCl, .05% Tween 20, (trademark) pH 7.4 (PBST). A 1:101 dilution (in PBST with 1% BSA, 1% NRS) of the primate serum to be tested was then added as 0.2 ml to each washed well and the plates were incubated at 37°C for 30 minutes. The plates were then washed x 3 with PBST, and 0.2 ml amounts of a 1:2000 dilution of goat anti-human (GAH) peroxidase enzyme conjugate (Organon Teknika, Cappel, Melvern, Pennsylvania, U.S.A.) that recognized human IgG, IgA, and IgM were added to each well, and the plates were incubated for 30 minutes at 37°C. The plates were then washed x 3 with PBST and incubated with 0.2 ml/well substrate consisting of 0,1M citric acid pH 5.2, 0.1 mg/ml o-phenylene diamine, 0.01% H₂O₂, at room temperature in the dark for 10 minutes. Reactions were stopped with 50 microliters of 4N H₂SO₄, and the color development was quantitated in a Multiscan plate reader at A₄₉₂. In each series of experiments positive and negative controls were included, and all tests were done in duplicate or quadruplicate. Most peptides and peptide conjugates were initially screened against a 1:101 dilution of pools of HIV positive or HIV negative sera, and the same serum pool was used to allow quantitative comparison of immunoreactivity of different free peptides or peptide-protein conjugates.
Figure 10A illustrates the immunoreactivity of synthetic natural peptides 2S06 and 2S09 (Figure 1) when conjugated via their C-terminal GC spacer to KLH using the heterobifunctional linker MBS. […] However, the immunoreactivity of many of the positives was low (A₄₉₂ less than 1.0), and some of the negative samples had A₄₉₂ values slightly above 0.20, resulting in minimal discrimination between negatives and positives. This poor discrimination led to a search for an improved carrier protein and/or linker.
Figure 10B illustrates the reactivity of synthetic natural peptide IWGCSGKLICTTAVPGC (2S09) when conjugated through its C-terminus to BSA via the heterobifunctional linker SMCC. […] Improvement in assay performance as compared with results of Example 5A is noted with respect to negative samples having lower A₄₉₂ values, and most positive samples having higher A₄₉₂ values. […] Because of the possibility that some of the low responsiveness might be due to antigenic differences of genetic variants in the region of this epitope, as reported for HIV isolates from Zaire (Gnann et al., Science 237:1346-1349, 1987), the natural sequence variant peptide 5S67 (Figure 3) was synthesized, chemically linked to BSA with SMCC, and tested against the same sera, plus one additional negative serum sample (Figure 10C). […] This instigated a search for unnatural sequence variants of peptide 2S09 that would retain high immunoreactivity with most sera that contained antibodies to HIV-1, and yet retain low reactivity with sera devoid of antibodies to HIV. […]

antibodies to HIV-1 [2] = test: Rapid EIA with latex-immobilized peptide reagents, HIV-1; assay type: binding, human; settings: passive adsorption
Protocol: A test device for performing rapid tests in less than 15 minutes was prepared as illustrated in Figures 14 and 15. Referring to Figures 14 and 15, the device comprises a plastic slide 10 (approximately 1 inch wide by 3/16 inch thick by 3 1/4 inches long) having a plurality of funnel-like wells 12, each having a capacity of approximately 200 microliters, an upper inflow tract rim 14 diameter of approximately 9 mm and a lower outflow tract 16 diameter of approximately 2 mm. The undersurface of the outflow tract 16 is designed so as to provide a smooth even contact with a membrane filter 18 placed next to it in the apparatus. The membrane filter separates reactants passing through it by size, retaining those particles above a predetermined size, such as above 0.22 µm, or above 0.45 µm in size (depending upon the specific filter chosen), though other filters placed into the apparatus might separate by binding or affinity (i.e. nitrocellulose, glass). […]
The mixture was shaken gently a room temperature for 1 hour, and then washed 3 times by centrifugation at 9,000 x g for 10 minutes, removal of supernate, and resuspension of the pellet in a 12-14 ml volume of deionized water, pH 4.5. […] It was determined that this stock solution of latex coated with peptide-BSA conjugate could be diluted 1:10-1:30 with latex diluent buffer for use in the rapid EIA described below. […]

[3] = EIA of 4S36 as free peptide or BSA conjugate on 3 polystyrene microtiter plates; assay type: binding, human; settings: BSA-peptide conjugate, plastic type 1; Figure 9
Excerpt: Antigenicity of each unnatural peptide is indicated by its ability as a free peptide to inhibit binding of HIV-1 antibodies to a BSA conjugate of peptide 2S09. […] Antigenicity of each peptide is indicated by its ability as a free peptide to inhibit binding of HIV-1 antibodies to a BSA conjugate of either 2S09 or peptide 5S67, a natural sequence variant reported in HIV-1 isolates from Zaire (Gnann et al., Science 237:1346-1349, 1987; and Alizon et al., Cell 46:36, 1986). […] Antigenicity of each peptide is indicated by its ability as a free peptide to inhibit binding of SIV/HIV-2 antibodies to a BSA conjugate of peptide 2S27. […] AA variants of peptide 2S27 are highlighted. […] Different groups of peptides were initially conjugated to BSA as indicated and the conjugates of each pool were first tested. […] All peptides were utilized C-terminally conjugated to BSA. […]
The free peptides or peptide-protein conjugates of Figures 1-13 were initially screened for immunoreactivity by coating each well of polystyrene microtiter EIA plates (Costar, Cambridge, Massachusetts, U.S.A.) with 0.2 ml amounts of concentrations of 5-50 micrograms/ml peptide in Tris buffer, 10 mM, pH 8.0, at 4°C overnight. […] Reactions were stopped with 50 microliters of 4N H₂SO₄, and the color development was quantitated in a Multiscan plate reader at A₄₉₂. […]

Sequence: VWGCSGKLICTTAVPGC [4S36]
- reactivity with sera that did not contain antibodies to HIV-1 (antibodies to HIV-1 [1]; 85-87 negative sera, Figures 10C, 11): remained acceptably low
- A492 values of positive samples (none less than) (antibodies to HIV-1 [1]; 98 positive samples, Figure 11): ≥ 1.0
- immunoreactivity with positive sera (antibodies to HIV-1 [1]; 98 sera containing antibodies to HIV-1, Figures 10B, 10C, 11): striking increase in immunoreactivity of the low positives
- performance of free peptide passively adsorbed to latex (antibodies to HIV-1 [2]): produced an immunoreactive reagent
- positive/negative ratios [3]: ≥ 20
